Among the data in patent US10975030B2, “Grp94 selective inhibitors and uses thereof” (University of Kansas, priority 2016, dated 2021) are Kd values, retold here.

Experiment [1] concerns the target Grp94 (recombinant cGrp94) (Canis lupus familiaris (Dog) (Canis familiaris), UniProt P41148). Description: Fluorescence polarization (FP) assay, cGrp94 with FITC-GDA. Particulars: apparent Kd, cGrp94 and FITC-GDA, triplicates, ± SEM, read-out: Kd Grp94. It is filed as binding. As for the experimental part: (§1) Fluorescence Polarization. Assay buffer (25 μL, 20 mM HEPES pH 7.3, 50 mM KCl, 5 mM MgCl2, 1 mM DTT, 20 mM Na2MoO4, 0.01% NP-40, and 0.5 mg/mL BGG) was added to 96-well plate (black well, black bottom) followed by the desired compound at the indicated final concentrations in DMSO (1% DMSO final concentration). […] Plates were incubated with rocking for 5 h at 4° C. […] Percent FITC-GDA bound was determined by using the DMSO millipolarization unit (mP) as the 100% bound value and the 0% for FITC-GDA. Kd values were calculated from separate experiments performed in triplicate using GraphPad Prism.
On the technique in general: In fluorescence polarisation assays a small probe gives low polarisation when free and higher when bound to something large.

Another experiment concerns the target Hsp90α (Homo sapiens (Human), UniProt P07900). Briefly: Fluorescence polarization (FP) assay, Hsp90α. It is filed as binding. How it is done:
as §1

Values joined by “and” are separate entries in the source; they are usually repeats but may differ in a detail not shown here. Identical values can stand only once.

Chain of Grp94 (recombinant cGrp94) (P41148 22-804): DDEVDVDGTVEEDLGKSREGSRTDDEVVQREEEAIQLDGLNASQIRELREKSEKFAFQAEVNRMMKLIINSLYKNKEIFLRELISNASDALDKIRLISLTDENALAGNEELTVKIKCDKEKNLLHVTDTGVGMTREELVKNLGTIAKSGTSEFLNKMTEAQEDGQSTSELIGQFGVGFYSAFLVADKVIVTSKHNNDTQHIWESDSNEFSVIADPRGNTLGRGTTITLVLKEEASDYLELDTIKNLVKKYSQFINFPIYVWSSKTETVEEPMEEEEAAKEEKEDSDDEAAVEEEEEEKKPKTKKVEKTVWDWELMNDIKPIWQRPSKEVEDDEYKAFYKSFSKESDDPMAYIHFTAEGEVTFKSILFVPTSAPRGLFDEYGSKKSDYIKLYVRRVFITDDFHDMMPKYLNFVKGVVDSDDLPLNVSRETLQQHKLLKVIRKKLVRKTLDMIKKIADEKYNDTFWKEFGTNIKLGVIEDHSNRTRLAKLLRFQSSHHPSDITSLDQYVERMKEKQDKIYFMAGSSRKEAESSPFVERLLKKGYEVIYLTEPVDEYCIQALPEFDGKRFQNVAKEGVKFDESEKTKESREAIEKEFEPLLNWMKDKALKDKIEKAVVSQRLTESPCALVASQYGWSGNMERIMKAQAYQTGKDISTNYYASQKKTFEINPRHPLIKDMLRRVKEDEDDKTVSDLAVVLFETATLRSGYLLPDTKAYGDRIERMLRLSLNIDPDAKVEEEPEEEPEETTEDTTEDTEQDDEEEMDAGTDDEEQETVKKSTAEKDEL

`NC(=O)c1ccc(-n2cccc2-c2ccccc2)cc1N[C@H]1CC[C@H](O)CC1` [Compound 5a, 2-(((1r,4r)-4-hydroxycyclohexyl)amino)-4-(2-phenyl-1H-pyrrol-1-yl)benzamide]: the Kd in experiment [1] is ~9 µM and 9.05 µM; at Hsp90α, > 100 µM.

In the case of `Cc1ccccc1-c1cccn1-c1ccc(C(N)=O)c(N[C@H]2CC[C@H](O)CC2)c1` [Compound 5b, 2-(((1r,4r)-4-hydroxycyclohexyl)amino)-4-(2-(o-tolyl)-1H-pyrrol-1-yl)benzamide], the Kd was 9.9 ± 0.54 µM in experiment [1] and > 100 µM on Hsp90α.

For `Cc1cccc(-c2cccn2-c2ccc(C(N)=O)c(N[C@H]3CC[C@H](O)CC3)c2)c1` [Compound 5c, 2-(((1r,4r)-4-hydroxycyclohexyl)amino)-4-(2-(m-tolyl)-1H-pyrrol-1-yl)benzamide], the Kd in experiment [1] was 9.43 ± 0.26 µM; at Hsp90α, > 100 µM.

As to `Cc1ccc(-c2cccn2-c2ccc(C(N)=O)c(N[C@H]3CC[C@H](O)CC3)c2)cc1` [Compound 5d, 2-(((1r,4r)-4-hydroxycyclohexyl)amino)-4-(2-(p-tolyl)-1H-pyrrol-1-yl)benzamide], the Kd in experiment [1] is 8.35 ± 0.14 µM; on Hsp90α it was > 100 µM.

In the case of `NC(=O)c1ccc(-n2cccc2-c2ccccc2Cl)cc1N[C@H]1CC[C@H](O)CC1` [Compound 5e, 4-(2-(2-chlorophenyl)-1H-pyrrol-1-yl)-2-(((1r,4r)-4-hydroxycyclohexyl)amino)benzamide], on Hsp90α, the Kd was > 100 µM.

With `NC(=O)c1ccc(-n2cccc2-c2cccc(Cl)c2)cc1N[C@H]1CC[C@H](O)CC1` [Compound 5f, 4-(2-(3-chlorophenyl)-1H-pyrrol-1-yl)-2-(((1r,4r)-4-hydroxycyclohexyl)amino)benzamide], the Kd at Hsp90α was > 100 µM.

For the compound `NC(=O)c1ccc(-n2cccc2-c2ccc(Cl)cc2)cc1N[C@H]1CC[C@H](O)CC1` [Compound 5g, 4-(2-(4-chlorophenyl)-1H-pyrrol-1-yl)-2-(((1r,4r)-4-hydroxycyclohexyl)amino)benzamide], the Kd in experiment [1] was 10.6 ± 0.54 µM; on Hsp90α, > 100 µM.

With `NC(=O)c1ccc(-n2cccc2-c2ccccn2)cc1N[C@H]1CC[C@H](O)CC1` [Compound 5h, 2-(((1r,4r)-4-hydroxycyclohexyl)amino)-4-(2-(pyridin-2-yl)-1H-pyrrol-1-yl)benzamide], the Kd was 14 ± 0.27 µM in experiment [1] and > 100 µM on Hsp90α.

Regarding `NC(=O)c1ccc(-n2cccc2-c2cccnc2)cc1N[C@H]1CC[C@H](O)CC1` [Compound 5i, 2-(((1r,4r)-4-hydroxycyclohexyl)amino)-4-(2-(pyridin-3-yl)-1H-pyrrol-1-yl)benzamide], the Kd was 5.5 ± 0.15 µM in experiment [1] and > 100 µM at Hsp90α.

Regarding `NC(=O)c1ccc(-n2cccc2-c2ccncc2)cc1N[C@H]1CC[C@H](O)CC1` [Compound 5j, 2-(((1r,4r)-4-hydroxycyclohexyl)amino)-4-(2-(pyridin-4-yl)-1H-pyrrol-1-yl)benzamide], the Kd in experiment [1] is 13.2 ± 0.12 µM; at Hsp90α it was > 100 µM.

As to `NC(=O)c1ccc(-n2cccc2Cc2ccccc2)cc1N[C@H]1CC[C@H](O)CC1` [Compound 8a, 4-(2-benzyl-1H-pyrrol-1-yl)-2-(((1r,4r)-4-hydroxycyclohexyl)amino)benzamide], the Kd in experiment [1] is ~1.3 µM and 1.13 µM; on Hsp90α it was > 100 µM.

With `NC(=O)c1ccc(-n2cccc2Cc2ccccc2Cl)cc1N[C@H]1CC[C@H](O)CC1` [Compound 8b, 4-(2-(2-chlorobenzyl)-1H-pyrrol-1-yl)-2-(((1r,4r)-4-hydroxycyclohexyl)amino)benzamide], the Kd in experiment [1] is 0.83 ± 0.12 µM; on Hsp90α, > 100 µM.

Turning to `NC(=O)c1ccc(-n2cccc2Cc2cccc(Cl)c2)cc1N[C@H]1CC[C@H](O)CC1` [Compound 8c], the Kd in experiment [1] was 2.45 ± 0.45 µM; on Hsp90α, > 100 µM.

`NC(=O)c1ccc(-n2cccc2Cc2ccc(Cl)cc2)cc1N[C@H]1CC[C@H](O)CC1` [Compound 8d, 4-(2-(4-chlorobenzyl)-1H-pyrrol-1-yl)-2-(((1r,4r)-4-hydroxycyclohexyl)amino)benzamide]: the Kd was > 25 µM in experiment [1] and > 100 µM at Hsp90α.

On to `NC(=O)c1ccc(-n2cccc2Cc2cccc(F)c2)cc1N[C@H]1CC[C@H](O)CC1` [Compound 8f, 4-(2-(3-fluorobenzyl)-1H-pyrrol-1-yl)-2-(((1r,4r)-4-hydroxycyclohexyl)amino)benzamide], for which the values for the Kd (in experiment [1]; at Hsp90α) were 4.53 ± 0.12 µM and > 100 µM, respectively.

Consider `NC(=O)c1ccc(-n2cccc2Cc2ccc(F)cc2)cc1N[C@H]1CC[C@H](O)CC1` [Compound 8g, 4-(2-(4-fluorobenzyl)-1H-pyrrol-1-yl)-2-(((1r,4r)-4-hydroxycyclohexyl)amino)benzamide], for which the Kd in experiment [1] was 8.35 ± 0.14 µM; on Hsp90α, > 100 µM.

In the case of `NC(=O)c1ccc(-n2cccc2Cc2ccccc2Br)cc1N[C@H]1CC[C@H](O)CC1` [Compound 8h, 4-(2-(2-bromobenzyl)-1H-pyrrol-1-yl)-2-(((1r,4r)-4-hydroxycyclohexyl)amino)benzamide], the Kd is 12.9 ± 0.11 µM in experiment [1] and > 100 µM on Hsp90α.

With `Cc1ccccc1Cc1cccn1-c1ccc(C(N)=O)c(N[C@H]2CC[C@H](O)CC2)c1` [Compound 8i, 2-(((1r,4r)-4-hydroxycyclohexyl)amino)-4-(2-(2-methylbenzyl)-1H-pyrrol-1-yl)benzamide], the figures for the Kd (in experiment [1]; at Hsp90α) were 4.2 ± 0.23 µM and > 100 µM, respectively.

In the case of `NC(=O)c1ccc(-n2cccc2Cc2cccc(O)c2)cc1N[C@H]1CC[C@H](O)CC1` [Compound 8k, 4-(2-(3-hydroxybenzyl)-1H-pyrrol-1-yl)-2-(((1r,4r)-4-hydroxycyclohexyl)amino)benzamide], the Kd is > 25 µM in experiment [1] and > 100 µM on Hsp90α.

In the case of `NC(=O)c1ccc(-n2cccc2Cc2ccc(O)cc2)cc1N[C@H]1CC[C@H](O)CC1` [Compound 8l, 4-(2-(4-hydroxybenzyl)-1H-pyrrol-1-yl)-2-(((1r,4r)-4-hydroxycyclohexyl)amino)benzamide], the Kd on Hsp90α was > 100 µM.

As to `COc1ccccc1Cc1cccn1-c1ccc(C(N)=O)c(N[C@H]2CC[C@H](O)CC2)c1` [Compound 8m, 2-(((1r,4r)-4-hydroxycyclohexyl)amino)-4-(2-(2-methoxybenzyl)-1H-pyrrol-1-yl)benzamide], the Kd in experiment [1] is 1.15 µM; at Hsp90α, > 100 µM.

With `NC(=O)c1ccc(-n2cccc2Cc2c(F)cccc2F)cc1N[C@H]1CC[C@H](O)CC1` [Compound 8n, 4-(2-(2,6-difluorobenzyl)-1H-pyrrol-1-yl)-2-(((1r,4r)-4hydroxycyclohexyl)amino)benzamide], the Kd in experiment [1] was > 25 µM; at Hsp90α, > 100 µM.

As for `NC(=O)c1ccc(-n2cccc2Cc2ccccn2)cc1N[C@H]1CC[C@H](O)CC1` [Compound 8o, 2-(((1r,4r)-4-hydroxycyclohexyl)amino)-4-(2-(pyridin-2-ylmethyl)-1H-pyrrol-1-yl)benzamide], the results for the Kd (in experiment [1]; on Hsp90α) were 14 ± 0.27 µM and > 100 µM, respectively.

On to `NC(=O)c1ccc(-n2cccc2Cc2cccnc2)cc1N[C@H]1CC[C@H](O)CC1` [Compound 8p, 2-(((1r,4r)-4-hydroxycyclohexyl)amino)-4-(2-(pyridin-3-ylmethyl)-1H-pyrrol-1-yl) benzamide], for which the Kd in experiment [1] was 5.5 ± 0.15 µM; at Hsp90α, > 100 µM.

As to `NC(=O)c1ccc(-n2cccc2Cc2ccncc2)cc1N[C@H]1CC[C@H](O)CC1` [Compound 8q, 2-(((1r,4r)-4-hydroxycyclohexyl)amino)-4-(2-(pyridin-4-ylmethyl)-1H-pyrrol-1-yl)benzamide], the Kd in experiment [1] was 13.2 ± 0.12 µM; on Hsp90α, > 100 µM.

Turning to `NC(=O)c1ccc(-n2cccc2CCc2ccccc2)cc1N[C@H]1CC[C@H](O)CC1` [Compound 9, 2-(((1r,4r)-4-hydroxycyclohexyl)amino)-4-(2-phenethyl-1H-pyrrol-1-yl)benzamide], the Kd was > 25 µM in experiment [1] and > 100 µM on Hsp90α.
